Measurements published in patent US9920039B2, “1,2,4-Oxadiazol compounds active against gram-positive pathogens” (UNIVERSITÀ DEGLI STUDI DI MILANO—BICOCCA, priority 2013, dated 2018).
Converted amounts (≈) assume the structure as drawn. Read-outs that look alike come from different tables or passages of the source.

Tests used:
[1] = test system: Staphylococcus aureus ATCC 29213; test: MIC by broth microdilution (CLSI); type: cell-based; details: read-out: MIC
Source text: (§1) Several well characterized for their antibiotic-susceptibility phenotype Staphylococcus aureus isolates were used for the determination of the in vitro antibacterial activity of the studied compounds. In particular, S. aureus ATCC 29213 reference standard strain and S. aureus M923 (collection strain) were used as MSSA strains. Among MRSA, S. aureus MU50 (ATCC 700699) reference standard strain and two collection strains (433 and F511) were used for susceptibility assays.
(§2) The in vitro antibacterial activity of the new agents was studied by determining their minimum inhibitory concentrations (MICs) by means of the broth microdilution method according to the Clinical and Laboratory Standards Institute (CLSI) guidelines.[16] Briefly, serial 2-fold dilutions of each compound were made using the Cation adjusted Mueller-Hinton broth (CAMHB) in microtitre plates with 96 wells. Dimethyl sulfoxide (DMSO) was used as solvent for all the synthesized compounds. An equal volume of the bacterial inoculum (1×10^6 CFU/mL) was added to each well on the microtitre plate containing 0.05 mL of the serial antibiotic dilutions. The microtitre plate was then incubated at 37° C. for 18-24 h after which each well was analysed for the presence of bacterial growth. The MIC was defined as the lowest concentration of antimicrobial agent able to cause inhibition of bacterial growth as shown by the lack of turbidity of the culture medium. […] Final DMSO concentrations were also taken into account in all the biological assays.
(§3) The antimicrobial activities, summarized in Table 2, were determined by the “gold standard” method of broth microdilution, as recommended by the Clinical Laboratory Standards Institute (CLSI) (See the Experimental Section). […] In detail, the bacterial strains were tested: Staphylococcus aureus ATCC 29213, a clinical strain of methicillin-susceptible S. aureus (M923), S. aureus MU50 (methicillin-resistant—MRSA), and two methicillin-resistant clinical strains, 433 and F511.
(§4) The antimicrobial activities, summarized in Table 3, were determined by the “gold standard” method of broth microdilution, as recommended by the Clinical Laboratory Standards Institute (CLSI) (See the Experimental Section). The minimum inhibitory concentration (MIC) values were expressed in μg/mL. […] In detail, the tested bacterial strains were: Staphylococcus aureus ATCC 29213, a clinical strain of methicillin-susceptible S. aureus (M923), S. aureus MU50 (methicillin-resistant—MRSA) strain, and two methicillin-resistant clinical strains, 433 and F511.

MRSA clinical strain 433 = test: MIC by broth microdilution (CLSI); type: cell-based, Staphylococcus aureus; details: Staphylococcus aureus, MRSA 433, read-out: MIC
Source text: as §1, §2, §3, §4

[2] = test system: MRSA clinical strain F511; test: MIC by broth microdilution (CLSI); type: cell-based, Staphylococcus aureus; details: Staphylococcus aureus
Source text: as §1, §2, §3, §4

[3] = test system: S. aureus MU50 (ATCC 700699), methicillin-resistant (MRSA); test: MIC by broth microdilution (CLSI); type: cell-based, Staphylococcus aureus; details: Staphylococcus aureus
Source text: as §1, §2, §3, §4

[4] = test system: methicillin-susceptible S. aureus (M923); test: MIC by broth microdilution (CLSI); type: cell-based, Staphylococcus aureus; details: Staphylococcus aureus, MSSA M923, read-out: MIC
Source text: as §1, §2, §3, §4

[5] = test system: HaCaT (human keratinocytes) cells; test: Cell viability, MTT assay; type: cell-based; details: P<0.01, FIG. 3
Method: (§5) [17-19] HepG2 and HaCat cells were grown in Dulbecco's modified eagles medium (DMEM) whereas PK15 in DMEM/M199 (1:1). All media were supplemented with 10% heat inactivated foetal bovine serum (FBS), 2 mM L-glutamine, 100 units/mL penicillin and 100 μg/mL streptomycin. Cells were maintained at 37° C. in a 5% CO2 atmosphere. All reagents for cell culture were from Euroclone (Pero, Italy).
(§6) Cell viability was measured by the MTT assay.[20] Briefly, MTT [3-(4,5-Dimethylthiazol-2-yl)-2,5-diphenyltetrazolium bromide] stock solution (5 mg/mL) was added to each well to a final concentration of 1.2 mM, and cells were incubated for 1 hour and 30 minutes at 37° C. After removing MTT solution, the reaction was stopped by adding 90% ethanol. Resuspended cells were centrifuged 10 min at 800×g. The absorbance was measured with the multilabel Victor^3 spectrophotometer (Perkin Elmer, Turku, Finland) at wavelength of 570 nm. Data are means±S.E. of 3 separate experiments performed in triplicate.
(§7) Statistical significance was obtained with Student'st test in comparison with controls *=P≤0.05, **=P≤0.001. Data are means±S.E. of 3 separate experiments performed in triplicate.
(§8) Another control was DMSO used as solvent.

[6] = test system: HepG2 (human hepatocellular carcinoma) cells; test: Cell viability, MTT assay; type: cell-based; details: FIG. 4
Method: as §5, §6, §7, §8

[7] = test system: PK15 (porcine kidney epithelial) cells; test: Cell viability, MTT assay; type: cell-based; details: 5-400 μg/mL, FIG. 2
Method: as §5, §6, §7, §8

[8] = test system: 6 ATCC (4MSSA, 2 MRSA)plus45 MRSA all LZD sensitive; test: MIC on strain panel (Table 4); type: cell-based, Staphylococcus aureus; details: 6 ATCC plus 45 MRSA
Source text: as §2

[9] = test system: 12 MRSE all LZD sensitive; test: MIC on strain panel (Table 4); type: cell-based, Staphylococcus epidermidis; details: Staphylococcus epidermidis
Source text: as §2

ATCC E. faecalis 29212 = test: MIC by broth microdilution (Table 5); type: cell-based, Enterococcus faecalis
Method: Dimethyl sulfoxide (DMSO) was used as solvent for all the synthesized compounds. An equal volume of the bacterial inoculum (1×10^6 CFU/mL) was added to each well on the microtitre plate containing 0.05 mL of the serial antibiotic dilutions. The microtitre plate was then incubated at 37° C. for 18-24 h after which each well was analysed for the presence of bacterial growth. The MIC was defined as the lowest concentration of antimicrobial agent able to cause inhibition of bacterial growth as shown by the lack of turbidity of the culture medium. […] Final DMSO concentrations were also taken into account in all the biological assays.

[10] = test system: Linezolid-resistant S. epidermidis Strains 1-10; test: MIC by broth microdilution (Table 5); type: cell-based, Staphylococcus epidermidis
Source text: as §2

[11] = test system: Linezolid-resistant S. hominis Strain 11; test: MIC by broth microdilution (Table 5); type: cell-based, Staphylococcus hominis; details: S. hominis Strain 11, linezolid-resistant
Source text: as §2

[12] = test system: 11 Linezolid-resistant CoNS; test: MIC summary on strain panel (Table 5); type: cell-based, Staphylococcus epidermidis, Staphylococcus hominis; details: 11 Linezolid-resistant CoNS
Source text: as §2

[13] = test system: 45 Linezolid-susceptible MRSA; test: MIC summary on strain panel (Table 5); type: cell-based, Staphylococcus aureus
Source text: In particular, eleven linezolid-resistant coagulase-negative staphylococci (CoNS) (ten S. epidermidis and one S. hominis) were investigated. The eleven linezolid-resistant strains were isolated in several hospital settings between 2010 and 2011 from positive blood cultures. For the […], recently isolated from patients with cystic fibrosis, showing different profiles of multi-resistance to different classes of antimicrobials, was used (Table 4 and 5).
as §2

[14] = racemic mixture, Table 2, read-out: MIC
[15] = racemic form, Table 3, read-out: MIC

CC(=S)NCC1CN(c2ccc(-c3nc(C)no3)c(F)c2)C(=O)O1 (racemic) [Compound A4b, 3-(3′-fluoro-4′-(3″-methyl-1,2,4-oxadiazol-5-yl)-phenyl)-5-(N-thioacetylaminomethyl)-oxazolidin-2-one]
MIC ([1]; Staphylococcus aureus, ATCC29213, ATCC 29213, racemic mixture, Table 2): 1.6 mg/L (≈ 4.57 µM) | MIC (MRSA clinical strain 433; racemic mixture, Table 2): 0.8 mg/L (≈ 2.28 µM) | MIC [2, 14]: 1.6 mg/L (≈ 4.57 µM) | MIC [3, 14]: ≤ 0.4 mg/L | MIC ([4]; racemic mixture, Table 2): 1.6 mg/L (≈ 4.57 µM) | concentration reaching statistically significant mortality compared to linezolid [5]: 400 µg/mL | concentration from which a reduction in viability was shown [6]: ≥ 50 µg/mL | reduction of viability [7]: less than 10%

CNC(=S)NCC1CN(c2ccc(-c3nc(C)no3)c(F)c2)C(=O)O1 (racemic) [Compound B4b, 1-((3-(3-fluoro-4-(3-methyl-1,2,4-oxadiazol-5-yl)phenyl)-oxazolidin-2-one-5-yl)methyl)-3-methylthiourea]
MIC ([1]; Staphylococcus aureus, ATCC29213, ATCC 29213, racemic form, Table 3): 6.25 mg/L (≈ 17.1 µM) | MIC (MRSA clinical strain 433; racemic form, Table 3): 3.12 mg/L (≈ 8.55 µM) | MIC [2, 15]: 6.25 mg/L (≈ 17.1 µM) | MIC [3, 15]: 1.6 mg/L (≈ 4.38 µM) | MIC ([4]; racemic form, Table 3): 6.25 mg/L (≈ 17.1 µM) | MIC-range ([8]; tested range ≤0.06 - >128): 0.5 to 16 mg/L | MIC50 ([8]; Staphylococcus aureus, read-out: MIC50): 4 mg/L | MIC90 ([8]; Staphylococcus aureus, read-out: MIC90): 16 mg/L | MIC50 ([9]; read-out: MIC50): 64 mg/L (≈ 175 µM) | MIC90 ([9]; read-out: MIC90): 128 mg/L (≈ 350 µM) | melting point: 170.7 to 172.4 °C

CC(=S)NC[C@@H]1CN(c2ccc(-c3nc(C)no3)cc2)C(=O)O1 [Compound A4aR]
MIC ([1]; ATCC S. aureus 29213, resolved enantiomers, Table 5): 128 mg/L (≈ 385 µM) | MIC (ATCC E. faecalis 29212): > 128 mg/L | MIC ([10]; S. epidermidis Strain 1, linezolid-resistant): > 128 mg/L | MIC ([10]; S. epidermidis Strain 2, linezolid-resistant): > 128 mg/L | MIC ([10]; S. epidermidis Strain 3, linezolid-resistant): > 128 mg/L | MIC ([10]; S. epidermidis Strain 4, linezolid-resistant): > 128 mg/L | MIC ([10]; S. epidermidis Strain 5, linezolid-resistant): > 128 mg/L | MIC ([10]; S. epidermidis Strain 6, linezolid-resistant): > 128 mg/L | MIC ([10]; S. epidermidis Strain 7, linezolid-resistant): > 128 mg/L | MIC ([10]; S. epidermidis Strain 8, linezolid-resistant): > 128 mg/L | MIC ([10]; S. epidermidis Strain 9, linezolid-resistant): > 128 mg/L | MIC ([10]; S. epidermidis Strain 10, linezolid-resistant): > 128 mg/L | MIC [11]: > 128 mg/L | MIC50 [12]: > 128 mg/L | MIC90 [12]: > 128 mg/L | MIC-range [12]: > 128 mg/L | MIC50 [13]: > 128 mg/L
